PubChem BioAssay AID1963841 (Molecular Pharmacology Branch, DTP, NCI, 2024)

Tested on: 439559-082-T-J2-PDC spheroid viability
Assay: Anticancer human tumor 439559-082-T-J2-PDC patient-derived colon adenocarcinoma cell line growth inhibition [POLQ]
Settings: spheroids with HUVEC and MSC; for IC50: curve of first compound; for viability, T/C: stronger effect = lower value
Summary of the method: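 Patient-derived tumour cells were co-cultured with HUVEC and mesenchymal stem cells as multicellular spheroids at 37 °C. They were treated with POLQ inhibitors (novobiocin, ART-558, RP6685) alone or combined with other agents. Top concentrations were at or near clinical Cmax (otherwise 10 microM; SN-38 at 1 microM), decreasing in half-log steps.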
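Further: spheroids exposed to compounds for seven days before readout.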
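Wherever viability, T/C is given: 100% = DMSO vehicle control viability.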

Q: Which IC50 (second compound 0.0316 µM) does the source give for O=c1[nH]cc(F)c(=O)[nH]1 + Cc1cccc(N(C)C(=O)C2C(O)CCN2c2nc(C)cc(C(F)(F)F)c2C#N)c1 here?
A: > 10 µM

Q: And the IC50 (second compound 0.1 µM)?
A: > 10 µM

Q: And the IC50 (second compound 0.316 µM)?
A: > 10 µM

Q: And the IC50 (second compound 1 µM)?
A: > 10 µM

Q: What about the IC50 (second compound 3.16 µM) of the same compound?
A: > 10 µM

Q: What about the IC50 (second compound 10 µM) of the same compound?
A: > 10 µM

Q: What about the viability, T/C (second compound 0.0316 µM, first compound 0.0316 µM) of the same compound?
A: 102%

Q: What about the viability, T/C (second compound 0.0316 µM, first compound 0.1 µM) of the same compound?
A: 93.3%

Q: And the viability, T/C (second compound 0.0316 µM, first compound 0.316 µM)?
A: 82.2%

Q: What about the viability, T/C (second compound 0.0316 µM, first compound 1 µM) of the same compound?
A: 78.3%

Q: And the viability, T/C (second compound 0.0316 µM, first compound 3.16 µM)?
A: 71.9%

Q: And the viability, T/C (second compound 0.0316 µM, first compound 10 µM)?
A: 66.7%

Q: And the viability, T/C (second compound 0.1 µM, first compound 0.0316 µM)?
A: 106%

Q: What about the viability, T/C (second compound 0.1 µM, first compound 0.1 µM) of the same compound?
A: 91.4%

Q: What about the viability, T/C (second compound 0.1 µM, first compound 0.316 µM) of the same compound?
A: 80.8%

Q: What about the viability, T/C (second compound 0.1 µM, first compound 1 µM) of the same compound?
A: 76.6%

Q: What about the viability, T/C (second compound 0.1 µM, first compound 3.16 µM) of the same compound?
A: 73.4%

Q: And the viability, T/C (second compound 0.1 µM, first compound 10 µM)?
A: 70%

Q: And the viability, T/C (second compound 0.316 µM, first compound 0.0316 µM)?
A: 104%

Q: And the viability, T/C (second compound 0.316 µM, first compound 0.1 µM)?
A: 97.4%

Q: And the viability, T/C (second compound 0.316 µM, first compound 0.316 µM)?
A: 84.6%

Q: What about the viability, T/C (second compound 0.316 µM, first compound 1 µM) of the same compound?
A: 75.1%

Q: And the viability, T/C (second compound 0.316 µM, first compound 3.16 µM)?
A: 73.1%

Q: And the viability, T/C (second compound 0.316 µM, first compound 10 µM)?
A: 68.8%

Q: And the viability, T/C (second compound 1 µM, first compound 0.0316 µM)?
A: 97.5%

Q: And the viability, T/C (second compound 1 µM, first compound 0.1 µM)?
A: 94.4%

Q: And the viability, T/C (second compound 1 µM, first compound 0.316 µM)?
A: 84.3%

Q: What about the viability, T/C (second compound 1 µM, first compound 1 µM) of the same compound?
A: 73.7%

Q: What about the viability, T/C (second compound 1 µM, first compound 3.16 µM) of the same compound?
A: 76.7%

Q: What about the viability, T/C (second compound 1 µM, first compound 10 µM) of the same compound?
A: 71%

Q: And the viability, T/C (second compound 3.16 µM, first compound 0.0316 µM)?
A: 93.1%

Q: And the viability, T/C (second compound 3.16 µM, first compound 0.1 µM)?
A: 94%

Q: And the viability, T/C (second compound 3.16 µM, first compound 0.316 µM)?
A: 84.5%

Q: And the viability, T/C (second compound 3.16 µM, first compound 1 µM)?
A: 72%

Q: And the viability, T/C (second compound 3.16 µM, first compound 3.16 µM)?
A: 71%

Q: And the viability, T/C (second compound 3.16 µM, first compound 10 µM)?
A: 68%

Q: What about the viability, T/C (second compound 10 µM, first compound 0.0316 µM) of the same compound?
A: 91.8%

Q: What about the viability, T/C (second compound 10 µM, first compound 0.1 µM) of the same compound?
A: 83.3%

Q: And the viability, T/C (second compound 10 µM, first compound 0.316 µM)?
A: 78.7%

Q: And the viability, T/C (second compound 10 µM, first compound 1 µM)?
A: 70.8%

Q: And the viability, T/C (second compound 10 µM, first compound 3.16 µM)?
A: 71%

Q: And the viability, T/C (second compound 10 µM, first compound 10 µM)?
A: 64%
